From ChEMBL document CHEMBL5291721, “A preclinical secondary pharmacology resource illuminates target-adverse drug reaction associations of marketed drugs” (Nat Commun, 2023)

Columns and labels:
[1] = target: T1, Muscarinic acetylcholine receptor M1 (Homo sapiens, UniProt P11229); assay type: functional, cell-based
T1 sequence (P11229 whole entry): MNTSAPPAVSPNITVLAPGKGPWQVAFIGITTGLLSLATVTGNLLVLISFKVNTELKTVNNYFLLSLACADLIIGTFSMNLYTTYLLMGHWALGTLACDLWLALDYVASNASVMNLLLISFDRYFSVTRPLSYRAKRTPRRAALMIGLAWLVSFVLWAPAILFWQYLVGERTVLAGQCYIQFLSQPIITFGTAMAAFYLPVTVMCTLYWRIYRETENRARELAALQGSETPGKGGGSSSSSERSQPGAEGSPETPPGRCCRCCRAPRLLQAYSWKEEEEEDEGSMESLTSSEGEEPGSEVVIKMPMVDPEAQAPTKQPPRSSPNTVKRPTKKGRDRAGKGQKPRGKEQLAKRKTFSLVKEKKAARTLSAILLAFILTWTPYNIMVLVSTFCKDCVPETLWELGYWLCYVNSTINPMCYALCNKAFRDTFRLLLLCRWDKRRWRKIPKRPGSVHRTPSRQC

[2] = target: Vascular endothelial growth factor receptor 2 (Homo sapiens, UniProt P35968); assay type: functional
[3] = target: Melanocortin receptor 3 (Homo sapiens, UniProt P41968)
[4] = target: T1, Muscarinic acetylcholine receptor M1; assay type: functional
[5] = target: Gamma-aminobutyric acid receptor subunit alpha-1 (Rattus norvegicus, UniProt P62813); assay type: functional
[6] = target: Glutamate receptor ionotropic, NMDA 1 (Rattus norvegicus, UniProt P35439)
[7] = target: D(3) dopamine receptor (Homo sapiens, UniProt P35462)
[8] = target: Histamine H1 receptor (Homo sapiens, UniProt P35367)
[9] = target: T2, Alpha-2A adrenergic receptor (Homo sapiens, UniProt P08913); assay type: functional, cell-based
T2 sequence (P08913 whole entry): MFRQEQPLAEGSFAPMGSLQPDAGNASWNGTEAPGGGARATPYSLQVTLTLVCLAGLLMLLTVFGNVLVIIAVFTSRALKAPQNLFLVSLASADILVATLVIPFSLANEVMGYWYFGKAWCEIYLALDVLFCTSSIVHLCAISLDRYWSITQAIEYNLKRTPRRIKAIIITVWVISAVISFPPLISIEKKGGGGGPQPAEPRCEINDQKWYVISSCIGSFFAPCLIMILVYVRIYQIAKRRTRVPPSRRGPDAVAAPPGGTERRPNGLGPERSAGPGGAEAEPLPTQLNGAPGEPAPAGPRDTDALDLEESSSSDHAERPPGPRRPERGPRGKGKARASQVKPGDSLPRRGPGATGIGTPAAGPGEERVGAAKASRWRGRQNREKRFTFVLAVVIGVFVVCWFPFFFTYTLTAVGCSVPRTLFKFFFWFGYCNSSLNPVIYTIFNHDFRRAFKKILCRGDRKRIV

[10] = target: Adenosine receptor A2a (Homo sapiens, UniProt P29274)
[11] = target: Histamine H2 receptor (Homo sapiens, UniProt P25021); assay type: functional, cell-based
[12] = target: Sodium-dependent noradrenaline transporter (Homo sapiens, UniProt P23975)
[13] = target: Sodium-dependent dopamine transporter (Homo sapiens, UniProt Q01959)
[14] = target: 3',5'-cyclic-AMP phosphodiesterase 4D (Homo sapiens, UniProt Q08499); assay type: functional
[15] = target: T3, Amine oxidase [flavin-containing] A (Homo sapiens, UniProt P21397); assay type: functional
T3 sequence (P21397 whole entry): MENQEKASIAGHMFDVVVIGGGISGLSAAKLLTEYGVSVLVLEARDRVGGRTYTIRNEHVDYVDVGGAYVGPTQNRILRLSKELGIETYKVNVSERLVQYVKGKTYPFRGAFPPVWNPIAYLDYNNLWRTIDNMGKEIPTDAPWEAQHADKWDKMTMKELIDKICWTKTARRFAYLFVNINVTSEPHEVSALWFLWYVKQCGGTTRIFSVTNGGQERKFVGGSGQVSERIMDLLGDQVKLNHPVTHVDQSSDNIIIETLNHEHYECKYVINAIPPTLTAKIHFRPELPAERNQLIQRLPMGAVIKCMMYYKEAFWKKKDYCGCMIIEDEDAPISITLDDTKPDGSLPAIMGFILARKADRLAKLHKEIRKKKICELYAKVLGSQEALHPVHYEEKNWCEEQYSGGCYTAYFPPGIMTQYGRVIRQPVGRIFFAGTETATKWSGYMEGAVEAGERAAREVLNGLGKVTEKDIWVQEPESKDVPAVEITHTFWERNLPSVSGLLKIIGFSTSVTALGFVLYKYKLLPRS

[16] = target: T4, 5-hydroxytryptamine receptor 2C (Homo sapiens, UniProt P28335)
T4 sequence (P28335 whole entry): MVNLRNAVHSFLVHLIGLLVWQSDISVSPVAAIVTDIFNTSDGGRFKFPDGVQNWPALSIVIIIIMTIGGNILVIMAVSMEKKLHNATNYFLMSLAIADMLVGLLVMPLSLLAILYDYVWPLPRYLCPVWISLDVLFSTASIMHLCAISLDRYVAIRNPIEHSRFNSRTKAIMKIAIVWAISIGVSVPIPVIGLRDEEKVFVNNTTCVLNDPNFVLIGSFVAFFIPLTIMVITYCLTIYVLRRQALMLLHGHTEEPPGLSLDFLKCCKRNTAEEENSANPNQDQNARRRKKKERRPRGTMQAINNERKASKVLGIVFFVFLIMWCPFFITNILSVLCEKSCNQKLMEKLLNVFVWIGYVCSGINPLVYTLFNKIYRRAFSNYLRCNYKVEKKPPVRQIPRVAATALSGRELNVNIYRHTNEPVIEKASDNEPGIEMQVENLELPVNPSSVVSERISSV
Also: assay procedure not described here.

Vascular endothelial growth factor receptor 2, sequence (P35968 whole entry): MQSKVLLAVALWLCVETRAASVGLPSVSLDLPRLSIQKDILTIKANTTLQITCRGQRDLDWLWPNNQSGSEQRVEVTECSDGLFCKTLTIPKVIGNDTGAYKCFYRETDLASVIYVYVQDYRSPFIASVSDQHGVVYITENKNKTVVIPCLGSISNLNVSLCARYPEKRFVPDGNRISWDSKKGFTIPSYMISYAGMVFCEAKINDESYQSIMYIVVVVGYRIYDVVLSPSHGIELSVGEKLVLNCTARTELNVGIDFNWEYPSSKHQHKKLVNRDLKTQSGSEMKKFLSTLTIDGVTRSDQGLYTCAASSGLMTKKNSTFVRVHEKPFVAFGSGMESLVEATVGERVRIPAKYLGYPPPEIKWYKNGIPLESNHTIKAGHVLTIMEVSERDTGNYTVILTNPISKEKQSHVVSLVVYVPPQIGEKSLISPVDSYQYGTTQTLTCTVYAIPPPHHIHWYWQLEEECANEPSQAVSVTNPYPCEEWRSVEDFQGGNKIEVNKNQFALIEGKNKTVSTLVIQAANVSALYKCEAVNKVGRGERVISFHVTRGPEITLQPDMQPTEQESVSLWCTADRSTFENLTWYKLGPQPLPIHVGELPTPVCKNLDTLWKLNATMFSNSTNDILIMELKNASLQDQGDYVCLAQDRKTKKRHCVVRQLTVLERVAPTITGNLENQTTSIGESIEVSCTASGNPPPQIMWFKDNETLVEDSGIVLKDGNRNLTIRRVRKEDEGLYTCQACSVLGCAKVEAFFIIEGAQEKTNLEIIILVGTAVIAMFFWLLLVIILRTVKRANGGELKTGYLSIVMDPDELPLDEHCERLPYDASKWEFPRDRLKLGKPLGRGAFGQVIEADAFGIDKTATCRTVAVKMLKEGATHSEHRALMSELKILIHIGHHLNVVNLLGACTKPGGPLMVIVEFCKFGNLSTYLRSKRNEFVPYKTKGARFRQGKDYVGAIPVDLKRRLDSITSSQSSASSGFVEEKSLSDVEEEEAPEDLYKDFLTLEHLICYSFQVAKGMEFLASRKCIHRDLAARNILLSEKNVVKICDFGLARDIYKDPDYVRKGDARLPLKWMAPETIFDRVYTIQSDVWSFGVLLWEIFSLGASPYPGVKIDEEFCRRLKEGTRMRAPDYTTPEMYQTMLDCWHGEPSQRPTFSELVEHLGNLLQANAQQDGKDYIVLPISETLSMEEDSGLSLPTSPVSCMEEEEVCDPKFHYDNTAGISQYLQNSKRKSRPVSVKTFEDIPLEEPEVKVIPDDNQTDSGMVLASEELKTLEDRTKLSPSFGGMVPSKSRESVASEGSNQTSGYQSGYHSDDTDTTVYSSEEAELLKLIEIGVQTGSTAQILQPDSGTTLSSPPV
Histamine H1 receptor, sequence (P35367 whole entry): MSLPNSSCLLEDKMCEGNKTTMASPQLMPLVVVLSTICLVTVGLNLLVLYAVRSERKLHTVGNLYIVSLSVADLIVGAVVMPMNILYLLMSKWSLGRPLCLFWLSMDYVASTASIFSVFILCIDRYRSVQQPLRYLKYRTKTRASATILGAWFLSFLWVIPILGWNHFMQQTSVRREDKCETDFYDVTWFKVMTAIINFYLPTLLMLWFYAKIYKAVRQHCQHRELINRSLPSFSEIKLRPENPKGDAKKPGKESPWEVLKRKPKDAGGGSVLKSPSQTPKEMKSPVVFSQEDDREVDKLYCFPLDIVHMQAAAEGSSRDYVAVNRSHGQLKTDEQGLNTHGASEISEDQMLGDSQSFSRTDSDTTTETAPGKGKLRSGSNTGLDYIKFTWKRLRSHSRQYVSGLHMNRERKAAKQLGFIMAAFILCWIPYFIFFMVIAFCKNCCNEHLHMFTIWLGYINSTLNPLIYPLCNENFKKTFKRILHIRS
Gamma-aminobutyric acid receptor subunit alpha-1, sequence (P62813 whole entry): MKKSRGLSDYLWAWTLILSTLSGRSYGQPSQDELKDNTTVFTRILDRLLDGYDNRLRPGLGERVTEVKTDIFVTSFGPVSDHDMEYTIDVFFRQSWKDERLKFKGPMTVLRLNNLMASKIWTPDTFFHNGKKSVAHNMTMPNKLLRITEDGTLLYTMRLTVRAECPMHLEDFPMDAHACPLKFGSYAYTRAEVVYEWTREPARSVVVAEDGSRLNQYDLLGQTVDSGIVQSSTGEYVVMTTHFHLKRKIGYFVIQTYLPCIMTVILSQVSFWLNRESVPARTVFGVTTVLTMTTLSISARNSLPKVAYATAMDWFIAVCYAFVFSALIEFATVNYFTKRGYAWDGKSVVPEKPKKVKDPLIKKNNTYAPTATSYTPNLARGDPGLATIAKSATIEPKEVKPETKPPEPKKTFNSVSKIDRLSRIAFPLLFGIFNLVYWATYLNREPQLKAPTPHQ
Melanocortin receptor 3, sequence (P41968 whole entry): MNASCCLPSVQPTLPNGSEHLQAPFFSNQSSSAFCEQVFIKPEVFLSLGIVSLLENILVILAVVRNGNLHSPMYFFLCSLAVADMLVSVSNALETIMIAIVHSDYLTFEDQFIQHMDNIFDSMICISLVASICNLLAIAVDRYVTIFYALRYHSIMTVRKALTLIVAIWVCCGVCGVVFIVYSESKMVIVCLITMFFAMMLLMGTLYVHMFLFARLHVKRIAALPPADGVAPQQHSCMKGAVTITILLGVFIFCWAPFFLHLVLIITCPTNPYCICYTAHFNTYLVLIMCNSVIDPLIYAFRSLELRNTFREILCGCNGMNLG
Adenosine receptor A2a, sequence (P29274 whole entry): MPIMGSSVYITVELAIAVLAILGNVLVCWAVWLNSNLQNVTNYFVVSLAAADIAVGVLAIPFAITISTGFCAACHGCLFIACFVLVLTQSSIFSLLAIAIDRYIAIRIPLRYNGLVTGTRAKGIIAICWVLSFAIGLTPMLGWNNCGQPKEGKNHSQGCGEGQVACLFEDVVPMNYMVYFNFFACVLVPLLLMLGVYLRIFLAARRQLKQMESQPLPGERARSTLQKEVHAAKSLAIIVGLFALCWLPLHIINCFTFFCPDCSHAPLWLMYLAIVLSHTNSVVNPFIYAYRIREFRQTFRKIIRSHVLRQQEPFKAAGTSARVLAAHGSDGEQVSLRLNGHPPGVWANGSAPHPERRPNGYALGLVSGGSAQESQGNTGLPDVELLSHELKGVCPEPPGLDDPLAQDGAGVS
Histamine H2 receptor, sequence (P25021 whole entry): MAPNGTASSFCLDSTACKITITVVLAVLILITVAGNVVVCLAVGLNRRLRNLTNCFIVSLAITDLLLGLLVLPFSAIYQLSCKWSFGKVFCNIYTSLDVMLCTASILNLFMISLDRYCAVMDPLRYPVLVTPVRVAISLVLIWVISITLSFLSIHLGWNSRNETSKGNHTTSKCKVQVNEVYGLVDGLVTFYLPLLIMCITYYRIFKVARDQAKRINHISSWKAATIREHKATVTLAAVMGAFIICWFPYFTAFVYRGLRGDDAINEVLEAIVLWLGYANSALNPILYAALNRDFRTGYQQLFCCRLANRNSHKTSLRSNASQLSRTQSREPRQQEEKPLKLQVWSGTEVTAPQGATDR
Sodium-dependent dopamine transporter, sequence (Q01959 whole entry): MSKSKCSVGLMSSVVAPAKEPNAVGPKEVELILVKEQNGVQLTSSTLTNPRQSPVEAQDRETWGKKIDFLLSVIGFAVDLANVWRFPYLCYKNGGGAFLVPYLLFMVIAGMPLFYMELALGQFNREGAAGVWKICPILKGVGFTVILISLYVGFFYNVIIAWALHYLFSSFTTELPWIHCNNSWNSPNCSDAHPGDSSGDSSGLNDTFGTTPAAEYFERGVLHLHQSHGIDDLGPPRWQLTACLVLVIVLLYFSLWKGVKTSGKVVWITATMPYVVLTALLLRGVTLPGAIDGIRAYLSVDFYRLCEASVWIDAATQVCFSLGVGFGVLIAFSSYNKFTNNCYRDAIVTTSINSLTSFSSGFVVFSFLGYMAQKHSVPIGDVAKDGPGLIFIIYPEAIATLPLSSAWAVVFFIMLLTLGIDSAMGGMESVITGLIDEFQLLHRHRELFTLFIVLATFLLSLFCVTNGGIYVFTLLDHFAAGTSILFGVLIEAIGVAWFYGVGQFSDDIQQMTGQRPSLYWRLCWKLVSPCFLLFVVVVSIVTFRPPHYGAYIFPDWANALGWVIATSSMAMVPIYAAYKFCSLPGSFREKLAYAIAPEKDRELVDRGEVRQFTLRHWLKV
Sodium-dependent noradrenaline transporter, sequence (P23975 whole entry): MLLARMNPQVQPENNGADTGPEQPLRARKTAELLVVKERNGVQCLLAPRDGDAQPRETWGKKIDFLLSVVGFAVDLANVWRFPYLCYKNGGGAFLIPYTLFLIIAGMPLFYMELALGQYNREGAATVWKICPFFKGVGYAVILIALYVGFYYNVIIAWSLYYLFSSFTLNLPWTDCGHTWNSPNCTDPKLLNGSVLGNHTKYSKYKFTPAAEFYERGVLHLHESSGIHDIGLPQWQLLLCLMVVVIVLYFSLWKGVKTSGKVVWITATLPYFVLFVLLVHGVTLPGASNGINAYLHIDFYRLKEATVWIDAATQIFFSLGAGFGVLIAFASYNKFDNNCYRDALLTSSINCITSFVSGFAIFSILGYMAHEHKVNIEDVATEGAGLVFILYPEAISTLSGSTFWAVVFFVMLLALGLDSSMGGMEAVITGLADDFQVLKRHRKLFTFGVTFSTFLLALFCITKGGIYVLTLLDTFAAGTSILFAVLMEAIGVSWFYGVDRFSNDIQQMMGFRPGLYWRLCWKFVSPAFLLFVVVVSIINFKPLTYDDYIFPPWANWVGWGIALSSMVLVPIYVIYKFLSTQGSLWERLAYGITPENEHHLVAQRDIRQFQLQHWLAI

Compound: NS(=O)(=O)c1cc2c(cc1Cl)NC(C1CC3C=CC1C3)NS2(=O)=O (stereo not given) [CYCLOTHIAZIDE]
- AC50 [1]: > 30 µM
- AC50 [2]: > 30 µM

Compound: O=C(NC1CCN(CCCCC2(C(=O)NCC(F)(F)F)c3ccccc3-c3ccccc32)CC1)c1ccccc1-c1ccc(C(F)(F)F)cc1 [LOMITAPIDE]
- AC50 [1]: > 30 µM
- AC50 [2]: > 30 µM

Compound: CCC1(c2cccc(O)c2)CCCCN(C)C1 (stereo not given) [MEPTAZINOL]
- AC50 [1]: > 30 µM
- AC50 [2]: > 30 µM

Compound: O=[N+]([O-])c1cncn1CCN1CCOCC1 [NIMORAZOLE]
- AC50 [1]: > 30 µM

Compound: CCC1C(C)=NN=C(c2ccc(OC)c(OC)c2)c2cc(OC)c(OC)cc21 (stereo not given) [TOFISOPAM]
- AC50 [1]: > 30 µM
- AC50 [2]: > 30 µM

Compound: CCCC[N+]1(C)[C@@H]2C[C@@H](OC(=O)[C@H](CO)c3ccccc3)C[C@H]1[C@@H]1O[C@@H]12 (stereo not given in full) [BUTYLSCOPOLAMINE]
- AC50 [2]: > 30 µM

Compound: CCOC(=O)CC(SP(=S)(OC)OC)C(=O)OCC (stereo not given) [MALATHION]
- AC50 [1]: > 30 µM

Compound: COc1cc2c(cc1OC)[C@H]1C[C@@H](OC(=O)[C@@H](N)C(C)C)[C@H](CC(C)C)CN1CC2 [VALBENAZINE]
- AC50 [1]: > 30 µM

Compound: CCS(=O)(=O)N1CC(CC#N)(n2cc(-c3ncnc4[nH]ccc34)cn2)C1 [BARICITINIB]
- AC50 [1]: > 30 µM

Compound: CN(C/C=C/c1ccccc1)Cc1cccc2ccccc12 [NAFTIFINE]
- AC50 [3]: > 30 µM
- AC50 [4]: > 10 µM
- AC50 [5]: > 10 µM
- AC50 [6]: > 10 µM
- AC50 [7]: > 30 µM
- AC50 [8]: > 10 µM
- AC50 [9]: > 10 µM
- AC50 [10]: > 30 µM
- AC50 [11]: > 10 µM
- AC50 [12]: 11.1 µM
- AC50 [13]: 17.3 µM
- AC50 [14]: > 30 µM
- AC50 [15]: > 10 µM
- AC50 [16]: > 30 µM

Compound: CCC(Cc1c(I)cc(I)c(N)c1I)C(=O)O (stereo not given) [IOPANOIC ACID]
- AC50 [1]: > 30 µM
- AC50 [2]: > 30 µM

Compound: COc1cc(NCc2ccc3nc(N)nc(N)c3c2C)cc(OC)c1OC [TRIMETREXATE]
- AC50 [1]: > 30 µM
